Values quoted from earlier work in patent US20230068267A1, “PLANT EXTRACT COMPOSITION FOR THE TREATMENT OF CARDIOVASCULAR AND METABOLIC DISEASES” (Meda Pharma S.p.A., priority 2020, published 2023).

How the values were obtained:
HMG-CoA reductase = biological target: T1, HMG-CoA reductase (Homo sapiens, UniProt P04035); conditions: statin-like properties; Di Donna 2009
T1 sequence (P04035 1-888): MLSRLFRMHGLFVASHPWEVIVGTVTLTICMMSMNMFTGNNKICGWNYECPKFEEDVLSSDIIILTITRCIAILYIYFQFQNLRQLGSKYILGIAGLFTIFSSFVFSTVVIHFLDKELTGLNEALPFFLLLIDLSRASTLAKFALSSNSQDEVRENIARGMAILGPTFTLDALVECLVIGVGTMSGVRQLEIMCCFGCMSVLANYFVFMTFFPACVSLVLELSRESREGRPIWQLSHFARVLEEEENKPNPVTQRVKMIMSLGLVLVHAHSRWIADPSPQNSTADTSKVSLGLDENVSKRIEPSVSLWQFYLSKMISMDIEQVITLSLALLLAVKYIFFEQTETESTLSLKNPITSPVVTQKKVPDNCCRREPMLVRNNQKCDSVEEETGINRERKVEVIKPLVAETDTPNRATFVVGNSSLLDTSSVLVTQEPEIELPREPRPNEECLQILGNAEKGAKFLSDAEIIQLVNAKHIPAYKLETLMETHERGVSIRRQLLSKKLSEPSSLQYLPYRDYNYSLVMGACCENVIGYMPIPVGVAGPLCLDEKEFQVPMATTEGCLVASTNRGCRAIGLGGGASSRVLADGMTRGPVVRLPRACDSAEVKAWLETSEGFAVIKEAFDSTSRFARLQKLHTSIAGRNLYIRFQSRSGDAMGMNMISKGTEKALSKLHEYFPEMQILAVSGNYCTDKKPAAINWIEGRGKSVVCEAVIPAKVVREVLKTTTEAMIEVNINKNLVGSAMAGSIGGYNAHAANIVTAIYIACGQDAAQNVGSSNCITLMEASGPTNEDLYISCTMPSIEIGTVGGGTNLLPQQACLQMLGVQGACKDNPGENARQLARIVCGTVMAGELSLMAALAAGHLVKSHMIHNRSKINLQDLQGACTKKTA

LDL cholesterol = conditions: Yu et. al. 2005

inhibitory action upon HMG-CoA reductase (HMG-CoA reductase) | Compound | inhibition of the oxidation of LDL cholesterol (LDL cholesterol)
inhibitory action upon HMG-CoA reductase | COc1ccc([C@@H]2CC(=O)c3c(O)cc(O[C@H]4O[C@@H](COC(=O)C[C@@](C)(O)CC(=O)O)[C@H](O)[C@@H](O)[C@@H]4O[C@@H]4O[C@@H](C)[C@H](O)[C@@H](O)[C@@H]4O)cc3O2)cc1O [brutieridin] | –
inhibitory action upon HMG-CoA reductase | C[C@@H]1O[C@@H](O[C@@H]2[C@@H](Oc3cc(O)c4c(c3)O[C@H](c3ccc(O)cc3)CC4=O)O[C@@H](COC(=O)C[C@@](C)(O)CC(=O)O)[C@H](O)[C@H]2O)[C@@H](O)[C@H](O)[C@H]1O [Melitidin] | –
– | Rutin | inhibit the oxidation of LDL cholesterol
